Source: patent publication US9834525B2, “Inhibitors of paxillin function and related compositions and methods” (UNIVERSITY OF TENNESSEE RESEARCH FOUNDATION, priority 2015, dated 2017)

What was measured:
Assay type in all cases: cell-based, human
AKT (Ser473) = test: Western blot of VEGF-induced AKT phosphorylation in REC; conditions: REC under VEGF; compound (II-4) 500 nM, SU6656 1 μM
Procedure: (§1) REC, Mel 270, OMM 2.5 under Hepatocyte Growth Factor (HGF) or Vascular Endothelial Growth Factor (VEGF) stimulation conditions: Cell lysates were collected in RIPA lysis buffer (50 mM Tris-HCl, pH 7.4, 150 mM NaCl, 2 mM EDTA, 1% Nonidet P-40, 0.1% SDS) with protease 1× inhibitor cocktail (Roche; Indianapolis, Ind.). Lysates were kept on ice and centrifuged at 10,000×g×10 minutes and total protein was measured using the BCA assay (Pierce, Rockford, Ill.). Protein samples were mixed with 4×LDS loading buffer with 2.5% 2-mercaptoethanol (Sigma-Aldrich), heated to 70° C. for 10 minutes, and loaded on NuPAGE 4-12% Bis-Tris gel (Invitrogen, Carlsbad, Calif.). Immunoblotting was performed with nitrocellulose membranes (Bio-Rad, Hercules, Calif.) at 170-mA start and 110-mA end at 25 V for two hours in NuPAGE transfer buffer (Invitrogen) containing 20% methanol. Membranes were blocked using Odyssey blocking buffer (LI-COR; Lincoln, Nebr.) for one hour at room temperature with gentle shaking Membranes were then incubated at 4° C. with specific primary antibodies (1:1000) overnight. Cellular protein was normalized using rabbit-GAPDH or mouse-α-Tubulin [1:20,000] (Cell Signaling, Danvers, Mass.; LI-COR, respectively). […] Dual-channel infrared scan and quantitation of immunoblots were conducted using the ODYSSEY Sa infrared imaging system with Image Studio (Ver. 3.1.4) (LI-COR). […]

ERK1/2 = test: Western blot of VEGF-induced ERK1/2 phosphorylation in REC; conditions: REC under VEGF; compound (II-4) 500 nM, SU6656 1 μM
Procedure: as §1

[1] = test system: retinal endothelial cells (REC); test: VEGF-induced REC proliferation, WST-1 metabolic assay; conditions: Compound (II-4) (500 nM), LY294002 (1004), SU6656 (104), U0126 (104) [sic]
Procedure: To investigate the potential of compound (II-4) affecting the proliferative capacity of RECs treated with VEGF, proliferation was measured using the metabolic assay based on the tetrazolium salt, WST-1. […] To rule out the possibility that this observation was related to cytotoxicity, RECs were incubated with a high concentration of compound (II-4) (1 μM) for 24 hours. Cells were harvested and apoptosis measured with Annexin-V/Propidium Iodide (PI) staining and analyzed using flow cytometry.
FIG. 18: REC Proliferation and Flow cytometry analysis of apoptosis in REC. A) VEGF-induced cellular proliferation was assessed using the WST-1 metabolic assay. […] (*P<0.0001). Nuclei were stained with DRAQ5 and imaged to show trend of decreasing proliferation. B) Apoptosis was measured using Annexin V/PI staining Compound (II-4) (1 μM) appears to be non-cytotoxic to retinal endothelial cells after 24 hour incubation (n≈10,000 cells).
FIG. 21: REC Proliferation. […] (*, # P<0.001; Mean±SD, N=8/group).

paxillin (pY118) = test: Western blot of VEGF-induced paxillin Y118 phosphorylation in REC; conditions: REC under VEGF; compound (II-4) 500 nM, SU6656 1 μM
Procedure: REC, Mel 270, OMM 2.5 under Hepatocyte Growth Factor (HGF) or Vascular Endothelial Growth Factor (VEGF) stimulation conditions: Cell lysates were collected in RIPA lysis buffer (50 mM Tris-HCl, pH 7.4, 150 mM NaCl, 2 mM EDTA, 1% Nonidet P-40, 0.1% SDS) with protease 1× inhibitor cocktail (Roche; Indianapolis, Ind.). Lysates were kept on ice and centrifuged at 10,000×g×10 minutes and total protein was measured using the BCA assay (Pierce, Rockford, Ill.). Protein samples were mixed with 4×LDS loading buffer with 2.5% 2-mercaptoethanol (Sigma-Aldrich), heated to 70° C. for 10 minutes, and loaded on NuPAGE 4-12% Bis-Tris gel (Invitrogen, Carlsbad, Calif.). Immunoblotting was performed with nitrocellulose membranes (Bio-Rad, Hercules, Calif.) at 170-mA start and 110-mA end at 25 V for two hours in NuPAGE transfer buffer (Invitrogen) containing 20% methanol. Membranes were blocked using Odyssey blocking buffer (LI-COR; Lincoln, Nebr.) for one hour at room temperature with gentle shaking Membranes were then incubated at 4° C. with specific primary antibodies (1:1000) overnight. Cellular protein was normalized using rabbit-GAPDH or mouse-α-Tubulin [1:20,000] (Cell Signaling, Danvers, Mass.; LI-COR, respectively). Secondary antibodies (IRDye 800CW goat anti-rabbit and IRDye 680LT goat anti-mouse) [1:10,000] were incubated in the dark at room temperature for 45 minutes. Dual-channel infrared scan and quantitation of immunoblots were conducted using the ODYSSEY Sa infrared imaging system with Image Studio (Ver. 3.1.4) (LI-COR).
The α4 subunit of the cytoplasmic tail of VLA-4 interacts with the cytoskeletal adaptor paxillin, merging intracellular signaling events that drive cellular proliferation and migration (FIG. 13). Compound (II-4) inhibits phosphorylation of paxillin at Y118 (pY118) in the LD-region that interacts with the α4 subunit of VLA-4. To confirm the inhibition of pY118 of paxillin after use of compound (II-4) retinal endothelial cells (REC) were activated with Vascular Endothelial Growth Factor (VEGF) at 50 ng/mL in the presence or absence (vehicle) of compound (II-4) at a concentration of […] for 4-hrs. […] VEGF-induced pY118 was prevented by treatment with compound (II-4) [VEGF-REC treatment versus untreated, *p<0.005; VEGF-induced versus compound (II-4) treatment, **p<0.05—FIG. 13C].
To gain insight into the mechanistic basis for this phenotype, the effect of compound (II-4) on the Src/FAK/paxillin/ERK signalsome in RECs under VEGF was examined. […] Next, characterization of the potential of compound (II-4) to affect FA disassembly through inactivation of ERK was explored. […]
FIG. 13: Targeting the alpha-4 subunit of VLA-4 signaling through inhibition of paxillin. […] Phosphorylation measured by Western Blot. […]

[2] = test system: FAK (Y397, Y576/577, Y925); test: Western blot of VEGF-induced FAK phosphorylation in REC; conditions: REC under VEGF; compound (II-4) 500 nM, SU6656 1 μM
Procedure: as §1

## CN(C)S(=O)(=O)c1ccc2c(c1)/C(=C/c1cc3c([nH]1)CCCC3)C(=O)N2 [SU6656, reference compound]
AKT (Ser473)
  VEGF-induced activation of AKT (P-AKT Ser473): inhibited
ERK1/2
  VEGF-dependent ERK1/2 phosphorylation: Neither SU6656 nor compound (II-4) decreased
[1]
  VEGF-induced REC proliferation (FIG. 21): inhibited
Paxillin (pY118)
  VEGF-induced PaxY118 phosphorylation (FIG. 20): inhibited
[2]
  VEGF-induced FAK activation (Y397, Y925): inhibited

## N#CC(=C(/N)Sc1ccccc1N)/C(C#N)=C(\N)Sc1ccccc1N [U0126, reference compound]
[1]
  VEGF-induced REC proliferation (FIG. 21): VEGF-induced REC proliferation was inhibited
Paxillin (pY118)
  VEGF-induced PaxY118 phosphorylation (FIG. 20): no change in activation of Y118
